Read-outs that look alike come from different tables or passages of the source.
What was measured:
[1] = tested on: T47D (PI3Kα H1047R mutant) cells; assay: CellTiter-Glo 2.0 luminescent cell viability assay, 72 hours, T47D cells; assay type: cell-based; settings: T47D (PI3Kα H1047R mutant) cells, CellTiter-Glo, approximately 72 hours, read-out: T47D (H1047R mutant) Viability IC50
How it was run: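 Cells seeded at 1000 per well overnight were dosed with a 10-concentration, 1:4 series starting at 10 µM and incubated ~72 h at 37° C. Viability was read by CellTiter-Glo 2.0 luminescence after 30 min at room temperature. IC50 came from four-parameter fits of percent vehicle control.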

[2] = tested on: SKBR3 (PI3Kα wild type) cells; assay: CellTiter-Glo 2.0 luminescent cell viability assay, 72 hours, SKBR3 cells; assay type: cell-based; settings: Homo sapiens, SK-BR-3, 72 h, SKBR3 (PI3Kα wild type) cells, CellTiter-Glo, approximately 72 hours; read-out: SKBR3 (WT) Viability IC50
How it was run: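 Viability measured via CTG luminescence following roughly 72 hours of compound exposure at 37° C. Dosing used a 10 um starting concentration diluted 1:4 over 10 points; percent-of-vehicle data fitted with a variable-slope four-parameter model for IC50.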

Row | SMILES | IC50 ([1]; Homo sapiens, T47D, 72 h) [nM] | IC50 [2] [nM] | IC50 [1] [nM]
1 | Cc1cc([C@@H](C)Nc2ccccc2C(=O)O)c2nc(N3C[C@H]4C[C@@H]3CN4CC(F)F)c(C)c(=O)n2c1 [Example 11-443, 2-(((R)-1-(2-((1R,4R)-5-(2,2-difluoroethyl)-2,5-diazabicyclo[2.2.1]heptan-2-yl)-3,7-dimethyl-4-oxo-4H-pyrido[1,2-a]pyrimidin-9-yl)ethyl)amino)benzoic acid] | 130 | > 10000 | 
2 | Cc1cc([C@@H](C)Nc2ccccc2C(=O)O)c2nc(N3CCC(n4cccn4)CC3)c(C)c(=O)n2c1 [Example 11-432, (R)-2-((1-(2-(4-(1H-pyrazol-1-yl)piperidin-1-yl)-3,7-dimethyl-4-oxo-4H-pyrido[1,2-a]pyrimidin-9-yl)ethyl)amino)benzoic acid] | 122 | > 10000 | 
3 | Cc1cc([C@@H](C)Nc2ccccc2C(=O)O)c2nc(N3CC4(COC4)C3)c(C#N)c(=O)n2c1 [Example 11-321, (R)-2-((1-(3-cyano-7-methyl-4-oxo-2-(2-oxa-6-azaspiro[3.3]heptan-6-yl)-4H-pyrido[1,2-a]pyrimidin-9-yl)ethyl)amino)benzoic acid] | 2800 | > 10000 | 
4 | Cc1cc(C(C)Nc2ccccc2C(=O)O)c2nc(-c3cccnc3)cc(=O)n2c1 (centres unmarked) [Example 11-401, 2-((1-(7-methyl-4-oxo-2-(pyridin-3-yl)-4H-pyrido[1,2-a]pyrimidin-9-yl)ethyl)amino)benzoic acid] | 3270 | > 10000 | 
5 | Cc1cc([C@@H](C)Nc2ccccc2C(=O)O)c2nc(-c3cccc(C(C)(C)C#N)c3)cc(=O)n2c1 [Example 11-239, (R)-2-((1-(2-(3-(2-cyanopropan-2-yl)phenyl)-7-methyl-4-oxo-4H-pyrido[1,2-a]pyrimidin-9-yl)ethyl)amino)benzoic acid] | 2970 | > 10000 | 
6 | Cc1cc([C@@H](C)Nc2ccccc2C(=O)O)c2nc(N3CCCC4(CCC4O)C3)c(C)c(=O)n2c1 (stereo partly drawn) [Example 10-8, 2-(((1R)-1-(2-(1-hydroxy-6-azaspiro[3.5]nonan-6-yl)-3,7-dimethyl-4-oxo-4H-pyrido[1,2-a]pyrimidin-9-yl)ethyl)amino)benzoic acid] | 24.2 | > 10000 | 
7 | Cc1cc([C@@H](C)Nc2ccccc2C(=O)O)c2nc(N3CC4CC(C3)N4c3ccc(C#N)cc3)c(C#N)c(=O)n2c1 [Example 11-134, 2-(((1R)-1-(3-cyano-2-(6-(4-cyanophenyl)-3,6-diazabicyclo[3.1.1]heptan-3-yl)-7-methyl-4-oxo-4H-pyrido[1,2-a]pyrimidin-9-yl)ethyl)amino)benzoic acid] | 605 | > 10000 | 
8 | Cc1cc([C@@H](C)Nc2ccccc2C(=O)O)c2nc(N3CCC4(CCOC4)CC3)c(C)c(=O)n2c1 [Example 10-130, (R)-2-((1-(3,7-dimethyl-4-oxo-2-(2-oxa-8-azaspiro[4.5]decan-8-yl)-4H-pyrido[1,2-a]pyrimidin-9-yl)ethyl)amino)benzoic acid] |  | > 10000 | 46.9
9 | C[C@H](Nc1ccccc1C(=O)O)c1cc(C2CC2)cn2c(=O)c(C#N)c(N3Cc4ccccc4C3)nc12 [Example 11-327, (S)-2-((1-(3-cyano-7-cyclopropyl-2-(isoindolin-2-yl)-4-oxo-4H-pyrido[1,2-a]pyrimidin-9-yl)ethyl)amino)benzoic acid] | 143 | 9930 | 
10 | Cc1cc([C@@H](C)Nc2ccccc2C(=O)O)c2nc(N3CCC(c4cc[nH]n4)CC3)c(C)c(=O)n2c1 [Example 11-252, (R)-2-((1-(2-(4-(1H-pyrazol-3-yl)piperidin-1-yl)-3,7-dimethyl-4-oxo-4H-pyrido[1,2-a]pyrimidin-9-yl)ethyl)amino)benzoic acid] | 114 | > 10000 | 
11 | Cc1cc([C@@H](C)Nc2ccc(Cl)nc2C(=O)O)c2nc(N3Cc4nccnc4C3)c(C)c(=O)n2c1 [Example 11-139, (R)-6-chloro-3-((1-(2-(5,7-dihydro-6H-pyrrolo[3,4-b]pyrazin-6-yl)-3,7-dimethyl-4-oxo-4H-pyrido[1,2-a]pyrimidin-9-yl)ethyl)amino)picolinic acid] | 272 | > 10000 | 
12 | Cc1cc([C@@H](C)Nc2ccccc2C(=O)O)c2nc(N3CC(F)(F)C[C@H]3C)c(C)c(=O)n2c1 [Example 11-125, 2-(((R)-1-(2-((R)-4,4-difluoro-2-methylpyrrolidin-1-yl)-3,7-dimethyl-4-oxo-4H-pyrido[1,2-a]pyrimidin-9-yl)ethyl)amino)benzoic acid] | 531 | > 10000 | 
13 | [2H]C12CC(C3CCN(c4nc5c([C@@H](C)Nc6ccccc6C(=O)O)cc(C)cn5c(=O)c4C)CC3)(C1)C2 [Example 11-36, (R)-2-((1-(2-(4-(bicyclo[1.1.1]pentan-1-yl-3-d)piperidin-1-yl)-3,7-dimethyl-4-oxo-4H-pyrido[1,2-a]pyrimidin-9-yl)ethyl)amino)benzoic acid] | 390 | > 10000 | 
14 | Cc1cc([C@@H](C)Nc2ccccc2C(=O)O)c2nc(N3CCC4(CCC(O)C4)CC3)c(C)c(=O)n2c1 (stereo partly drawn) [Example 10-143, 2-(((1R)-1-(2-(2-hydroxy-8-azaspiro[4.5]decan-8-yl)-3,7-dimethyl-4-oxo-4H-pyrido[1,2-a]pyrimidin-9-yl)ethyl)amino)benzoic acid] | 83.1 | > 10000 | 
15 | Cc1cc([C@@H](C)Nc2ccccc2C(=O)O)c2nc(N3CCN(C4CC4)CC3)c(C#N)c(=O)n2c1 [Example 11-150, (R)-2-((1-(3-cyano-2-(4-cyclopropylpiperazin-1-yl)-7-methyl-4-oxo-4H-pyrido[1,2-a]pyrimidin-9-yl)ethyl)amino)benzoic acid] | 342 | > 10000 | 
16 | Cc1cc([C@@H](C)Nc2ccccc2C(=O)O)c2nc(N3CC(c4ccccc4)C3)c(C)c(=O)n2c1 [Example 11-18, (R)-2-((1-(3,7-dimethyl-4-oxo-2-(3-phenylazetidin-1-yl)-4H-pyrido[1,2-a]pyrimidin-9-yl)ethyl)amino)benzoic acid] | 416 | > 10000 | 
17 | Cc1cc([C@@H](C)Nc2ccccc2C(=O)O)c2nc(N3CCC4(CCO4)CC3)c(C)c(=O)n2c1 [Example 11-56, (R)-2-((1-(3,7-dimethyl-4-oxo-2-(1-oxa-7-azaspiro[3.5]nonan-7-yl)-4H-pyrido[1,2-a]pyrimidin-9-yl)ethyl)amino)benzoic acid] | 264 | > 10000 | 
18 | Cc1cc(C(C)NC2CC(C(=O)O)C2)c2nc(N3CCCCC3)cc(=O)n2c1 (centres unmarked) [Example 11-385, 3-((1-(7-methyl-4-oxo-2-(piperidin-1-yl)-4H-pyrido[1,2-a]pyrimidin-9-yl)ethyl)amino)cyclobutane-1-carboxylic acid] | > 10000 | > 10000 | 
19 | Cc1cc(C(C)Nc2ccccc2C(=O)O)c2nc(C3CCN(C)C(=O)C3)cc(=O)n2c1 (centres unmarked) [Example 11-377, 2-((1-(7-methyl-2-(1-methyl-2-oxopiperidin-4-yl)-4-oxo-4H-pyrido[1,2-a]pyrimidin-9-yl)ethyl)amino)benzoic acid] | 3630 | > 10000 | 
20 | Cc1cc([C@@H](C)Nc2ccccc2C(=O)O)c2nc(N3CCN(C)CC3)c(C#N)c(=O)n2c1 [Example 11-295, (R)-2-((1-(3-cyano-7-methyl-2-(4-methylpiperazin-1-yl)-4-oxo-4H-pyrido[1,2-a]pyrimidin-9-yl)ethyl)amino)benzoic acid] | 503 | > 10000 | 
21 | Cc1cc([C@@H](C)Nc2ccccc2C(=O)O)c2nc(N3CC4C5CCC(CC5)C4C3)c(C)c(=O)n2c1 (stereo partly drawn) [Example 10-133, 2-(((1R)-1-(3,7-dimethyl-2-(octahydro-2H-4,7-ethanoisoindol-2-yl)-4-oxo-4H-pyrido[1,2-a]pyrimidin-9-yl)ethyl)amino)benzoic acid] | 55.4 | > 10000 | 
22 | Cc1cc([C@@H](C)Nc2ccccc2C(=O)O)c2nc(N3C[C@H](C)C(F)(F)C3)c(C)c(=O)n2c1 [Example 11-119, 2-(((R)-1-(2-((S)-3,3-difluoro-4-methylpyrrolidin-1-yl)-3,7-dimethyl-4-oxo-4H-pyrido[1,2-a]pyrimidin-9-yl)ethyl)amino)benzoic acid] | 132 | > 10000 | 
23 | Cc1cc([C@@H](C)Nc2ccccc2C(=O)O)c2nc(N3C4CC3CN(c3ccc(C#N)cc3)C4)c(C)c(=O)n2c1 [Example 11-181, 2-(((1R)-1-(2-(3-(4-cyanophenyl)-3,6-diazabicyclo[3.1.1]heptan-6-yl)-3,7-dimethyl-4-oxo-4H-pyrido[1,2-a]pyrimidin-9-yl)ethyl)amino)benzoic acid] | > 10000 | > 10000 | 
24 | Cc1cc([C@@H](C)Nc2ccccc2C(=O)O)c2nc(N3Cc4cccc(F)c4C3)c(C)c(=O)n2c1 [Example 11-38, (R)-2-((1-(2-(4-fluoroisoindolin-2-yl)-3,7-dimethyl-4-oxo-4H-pyrido[1,2-a]pyrimidin-9-yl)ethyl)amino)benzoic acid] | 194 | > 10000 | 
25 | Cc1ccc(C#N)c(N2CCN(c3nc4c([C@@H](C)Nc5ccccc5C(=O)O)cc(C)cn4c(=O)c3C)[C@@H](C)C2)c1 [Example 11-75, 2-(((R)-1-(2-((S)-4-(2-cyano-5-methylphenyl)-2-methylpiperazin-1-yl)-3,7-dimethyl-4-oxo-4H-pyrido[1,2-a]pyrimidin-9-yl)ethyl)amino)benzoic acid] | 1570 | > 10000 | 

— patent US20260078120A1, “SUBSTITUTED PYRIDOPYRIMIDINONES” (MIRATI THERAPEUTICS, INC., priority 2022, published 2026)
